Measurements as given in patent US8846571B2, “Herbicidal compositions containing benzoylpyrazole compounds” (priority 2008, dated 2014).
Read-outs that look alike come from different tables or passages of the source.

Key:
[1] = tested on: velvetleaf; assay: Foliar treatment pot test (Example 1), visual growth inhibition of velvetleaf; type: in vivo, velvetleaf (Abutilon theophrasti MEDIC.)
Excerpt: (§1) When the herbicidal activity in a case where two active ingredients are combined, is larger than the simple sum of the respective herbicidal activities of the two active ingredients (the expected activity), it is called a synergistic effect. The activity expected by the combination of two active ingredients can be calculated as follows (Colby S. R., “Weed”, vol. 15, p. 20-22, 1967). E=α+β−(α×β÷100) where
(§2) Upland field soil was put into a 1/1,000,000 hectare pot, and seeds of various plants were sown. When the respective plants reached predetermined leaf stage, herbicidal compositions in predetermined amounts were diluted with water in an amount corresponding to 300 L/ha and applied for foliar treatment by a small sprayer.
(§3) Further, in accordance with the above Colby's formula, the growth inhibition rate (calculated value) was calculated. In Tables, with respect to the compound Q, Compound Nos. in Table 1 are described, and with respect to other herbicidal compounds, common names are described.

[2] = tested on: crabgrass; assay: Foliar treatment pot test (Example 1), visual growth inhibition of crabgrass; type: in vivo
Excerpt: as §1, §2, §3

[3] = Foliar treatment pot test (Example 1), plant name misprinted as 'days after treatment'; type: in vivo; details: 4.0-5.0 leaf stage
Excerpt: as §1, §2, §3

[4] = tested on: prickly sida; assay: Foliar treatment pot test (Example 1), visual growth inhibition of prickly sida; type: in vivo, prickly sida (Side spinosa L.); details: read-out: Growth inhibition rate (%) Measured value
Excerpt: as §1, §2, §3

[5] = tested on: various plants; assay: Foliar treatment pot test (Example 1) on various plants; type: in vivo; details: Setaria, 336 h, fiant foxtail, 4.0-5.0 leaf stage, 14 days after treatment, read-out: Growth inhibition rate (%) of fiant foxtail, Measured value
Excerpt: as §1, §2, §3

[6] = 504 h, 21 days after treatment, read-out: Growth inhibition rate (%) Measured value

## CCc1cccc(C)c1N(C(=O)CCl)[C@@H](C)COC [S-Metolachlor, S-metolachlor]
[1]; velvetleaf 3.0-3.5 leaf stage, 21 days after treatment, 300 g/ha
  Growth inhibition rate (%) Measured value: 0%
[2]; 4.0-5.0 leaf stage, 14 days after treatment, 150 g/ha
  Growth inhibition rate (%) of crabgrass, Measured value: 0%
[2]; crabgrass 4.0-5.1 leaf stage, 21 days after treatment, 300 g/ha
  Growth inhibition rate (%) Measured value: 0%
[2]; crabgrass 5.0-6.0 leaf stage, 14 days after treatment, 800 g/ha
  Growth inhibition rate (%) Measured value: 0%

## COC(=O)c1c(Cl)nn(C)c1S(=O)(=O)NC(=O)Nc1nc(OC)cc(OC)n1 [Halofulfuron-methyl]
[2]; 5.0-5.5 leaf stage, 14 days after treatment, 20 g/ha
  Growth inhibition rate (%) of crabgrass, Measured value: 0%

## CCOCCN(C(=O)CCl)C(=C(C)C)c1ccccc1 [Pethoxamid, pethoxamid, reference compound]
[1]; velvetleat 3.3-4.2 leaf stage, 13 days after treatment, 200 g/ha
  Growth inhibition rate (%) Measured value: 0%
[2]; crabgrass 4.4-5.0 leaf stage, 13 days after treatment, 200 g/ha
  Growth inhibition rate (%) Measured value: 0%

## CCNc1nc(Cl)nc(NC(C)(C)C)n1 [Terbuthylazine, terbuthylazine]
[3]; 192 h, 8 days after treatment, 250 g/ha, read-out: Growth inhibition rate (%) Measured value
  inhibition at 250 g/ha: 10%
[3]; [6]
  inhibition at 125 g/ha: 0%

## CCn1ncc(C(=O)c2ccc(S(C)(=O)=O)c(OCCOC)c2C)c1OC(C)OC(=O)OC (stereo not drawn) [NO. 4, 1-(1-ethyl-4-(3-(2-methoxyethoxy)-2-methyl-4-(methylsulfonyl)benzoyl)-1H-pyrazol-5-yloxy)ethyl methyl carbonate]
[3]; 504 h, 21 days after treatment, 3.5 g/ha, read-out: Growth inhibition rate (%) of days after treatment, Measured value
  inhibition at […]: 40%
[3]; 504 h, 21 days after treatment, 7 g/ha, read-out: Growth inhibition rate (%) of days after treatment, Measured value
  inhibition at 7 g/ha: 60%
[4]; 480 h, prickly sida 1.5-2.4 leaf stage, 20 days after treatment, 75 g/ha
  inhibition at 75 g/ha: 55%
[1]; 3.0-4.0 leaf stage, 14 days after treatment, 15 g/ha
  Growth inhibition rate (%) of velvetleaf, Measured value: 80%
[1]; Abutilon theophrasti, foliar, 336 h, 3.0-4.0 leaf stage, 14 days after treatment, 15 g/ha, read-out: Growth inhibition rate (%) of velvetleaf, Measured value
  inhibition at 15 g/ha: 73%
[1]; Abutilon theophrasti, foliar, 504 h, velvetleaf 3.1-3.4 leaf stage, 21 days after treatment, 5 g/ha, read-out: Growth inhibition rate (%) Measured value
  inhibition at 5 g/ha: 94%
[1]; Abutilon theophrasti, foliar, 504 h, velvetleaf 3.8-4.4 leaf stage, 21 days after treatment, 15 g/ha, read-out: Growth inhibition rate (%) Measured value
  inhibition at 15 g/ha: 75%
[1]; Abutilon theophrasti, foliar, 528 h, velvetleaf 3.3-3.8 leaf stage, 22 days after treatment, 15 g/ha, read-out: Growth inhibition rate (%) Measured value
  inhibition at 15 g/ha: 89%
[1]; Abutilon theophrasti, foliar, 552 h, 3.0-3.5 leaf stage, 23 days after treatment, 7 g/ha, read-out: Growth inhibition rate (%) of velvetleaf, Measured value
  inhibition at 7 g/ha: 75%
[1]; Abutilon theophrasti, foliar, 552 h, 3.0 to 3.5 leaf stage, 23 days after treatment, 15 g/ha, read-out: Growth inhibition rate (%) of velvetleaf, Measured value
  inhibition at 15 g/ha: 93%
[1]; Abutilon theophrasti, foliar, 576 h, 3.2-4.1 leaf stage, 24 days after treatment, 15 g/ha, read-out: Growth inhibition rate (%) of velvetleaf, Measured value
  inhibition at 15 g/ha: 93%
[5]; 7 g/ha
  inhibition at 7 g/ha: 75%
[2]; Digitaria sanguinalis, foliar, 336 h, crabgrass 3.5-4.3 leaf stage, 14 days after treatment, 5 g/ha, read-out: Growth inhibition rate (%) Measured value
  inhibition at 5 g/ha: 90%
[2]; Digitaria sanguinalis, foliar, 552 h, 4.0-5.1 leaf stage, 23 days after treatment, 15 g/ha, read-out: Growth inhibition rate (%) of crabgrass, Measured value
  inhibition at 15 g/ha: 85%

## N.O=C(O)CNCP(=O)(O)O [Glyphosate-ammonium, glyphosate-ammonium]
[2]; crabgrass 5.0-5.5 leaf stage, 21 days after treatment, 100 g/ha
  Growth inhibition rate (%) Measured value: 10%

## COc1c(Cl)ccc(Cl)c1C(=O)O [Dicamba, dicamba]
[3]; 336 h, 14 days after treatment, 200 g/ha, read-out: Growth inhibition rate (%) Measured value
  inhibition at 200 g/ha: 0%

## CCCCCCCCSC(=O)Oc1cc(Cl)nnc1-c1ccccc1 [Pyridate, pyridate, reference compound]
[3]; 504 h, 21 days after treatment, 100 g/ha, read-out: Growth inhibition rate (%) of days after treatment, Measured value
  inhibition at 100 g/ha: 0%
[5]; 100 g/ha
  inhibition at 100 g/ha: 0%

## CCOC(=O)OC(C)Oc1c(C(=O)c2ccc(S(C)(=O)=O)c(OCCOC)c2C)cnn1C (stereo not drawn) [NO. 2]
[1]; velvetleaf 4.0-4.3 leaf stage, 22 days after treatment, 3.75 g/ha
  Growth inhibition rate (%) Measured value: 0%

## COC(=O)c1sccc1S(=O)(=O)NC(=O)Nc1nc(C)nc(OC)n1 [Thifensulfuron-methyl]
[3]; 504 h, 21 days after treatment, 5 g/ha, read-out: Growth inhibition rate (%) of days after treatment, Measured value
  inhibition at 5 g/ha: 0%

## CS(=O)(=O)c1ccc(C(=O)C2C(=O)CCCC2=O)c([N+](=O)[O-])c1 [Mesotrione]
[3]; 504 h, 21 days after treatment, 15 g/ha, read-out: Growth inhibition rate (%) of days after treatment, Measured value
  inhibition at 15 g/ha: 5%

## CCNc1nc(Cl)nc(NC(C)C)n1 [Atrazine, atrazine]
[3]; [6]
  inhibition at 125 g/ha: 0%
[4]; 504 h, prickly sida 3.0-3.3 leaf stage, 21 days after treatment, 63 g/ha
  inhibition at 63 g/ha: 30%
[4]; 504 h, prickly sida 3.0-3.3 leaf stage, 21 days after treatment, 125 g/ha
  inhibition at 125 g/ha: 45%
